{"source": "paper PMC12695923", "about": "“The role of N185D substitution in enhancing activity of BaqA∆C α-amylase” (Scientific Reports, 2025)", "target": "T1, BaqAΔC (Rossellomorea aquimaris, UniProt G8IJA7)", "T1 construct": "gene baqA", "T1 sequence (G8IJA7 24-478)": "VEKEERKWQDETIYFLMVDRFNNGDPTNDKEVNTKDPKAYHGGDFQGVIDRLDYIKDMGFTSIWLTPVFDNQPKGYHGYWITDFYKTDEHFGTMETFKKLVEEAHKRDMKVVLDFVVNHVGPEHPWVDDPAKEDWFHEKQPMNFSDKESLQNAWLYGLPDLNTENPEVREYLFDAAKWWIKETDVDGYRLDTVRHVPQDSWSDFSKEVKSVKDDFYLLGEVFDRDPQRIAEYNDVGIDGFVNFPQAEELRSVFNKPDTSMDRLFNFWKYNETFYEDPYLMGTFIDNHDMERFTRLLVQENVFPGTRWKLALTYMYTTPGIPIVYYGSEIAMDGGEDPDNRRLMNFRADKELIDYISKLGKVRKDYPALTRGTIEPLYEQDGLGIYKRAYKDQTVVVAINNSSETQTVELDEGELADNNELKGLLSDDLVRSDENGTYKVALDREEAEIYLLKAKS", "assay": "intrinsic fluorescence quenching, modified Stern-Volmer plot", "type": "binding", "details": "50 mM HEPES pH 8; 15 min at 50 °C, spectra at 25 °C; n = 1.3; acarbose 15-75 mM", "data": [{"smiles": "C[C@H]1O[C@H](O[C@H]2[C@H](O)[C@@H](O)[C@@H](O[C@H]3[C@H](O)[C@@H](O)C(O)O[C@@H]3CO)O[C@@H]2CO)[C@H](O)[C@@H](O)[C@@H]1N[C@H]1C=C(CO)[C@@H](O)[C@H](O)[C@H]1O", "note": "(stereo partly shown) [acarbose]", "values": [{"measurement": "Ka", "result": 0.032, "unit": "mL/mg"}]}]}
